According to PubChem BioAssay (NCI):
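1) Cells in 96-well plates. 2) Compound, 48 h, 5 concentrations. 3) Linear interpolation between surrounding doses. 4) Unreached endpoint = highest concentration. At the GI50, growth is halved. TGI denotes the concentration required for complete inhibition of growth.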

How the values were obtained:
Test in all cases: NCI tumour cell line growth inhibition, 48 h
DU-145 prostate = test system: DU-145 prostate
MCF7 breast = test system: MCF7 breast
SR leukemia = test system: SR leukemia
A549 NSCLC = test system: A549 NSCLC
EKVX NSCLC = test system: EKVX NSCLC
RPMI-8226 leukemia = test system: RPMI-8226 leukemia
PC-3 prostate = test system: PC-3 prostate
ACHN renal = test system: ACHN renal
COLO 205 colon = test system: COLO 205 colon
SF-268 CNS = test system: SF-268 CNS
CAKI-1 renal = test system: CAKI-1 renal
SNB-75 CNS = test system: SNB-75 CNS
HCC-2998 colon = test system: HCC-2998 colon
HS 578T breast = test system: HS 578T breast
SNB-19 CNS = test system: SNB-19 CNS
NCI-H23 lung = test system: NCI-H23 lung
RXF 393 renal = test system: RXF 393 renal
A498 renal = test system: A498 renal
NCI-H460 lung = test system: NCI-H460 lung
SK-MEL-2 melanoma = test system: SK-MEL-2 melanoma
T-47D breast = test system: T-47D breast
HL-60(TB) leukemia = test system: HL-60(TB) leukemia
UO-31 renal = test system: UO-31 renal
OVCAR-5 ovarian = test system: OVCAR-5 ovarian
NCI-H522 lung = test system: NCI-H522 lung
MOLT-4 leukemia = test system: MOLT-4 leukemia
MDA-MB-231 breast = test system: MDA-MB-231 breast
TK-10 renal = test system: TK-10 renal
HOP-62 NSCLC = test system: HOP-62 NSCLC
KM12 colon = test system: KM12 colon
UACC-257 melanoma = test system: UACC-257 melanoma
K-562 leukemia = test system: K-562 leukemia
OVCAR-3 ovarian = test system: OVCAR-3 ovarian
U251 CNS = test system: U251 CNS
LOX IMVI melanoma = test system: LOX IMVI melanoma
HOP-92 NSCLC = test system: HOP-92 NSCLC
786-0 renal = test system: 786-0 renal
SF-539 CNS = test system: SF-539 CNS
SF-295 CNS = test system: SF-295 CNS
NCI-H226 lung = test system: NCI-H226 lung

For `CCN(CC)S(=O)(=O)c1ccc(-c2nc(C(Cl)Cl)nc3cc(C)nn23)cc1`, the GI50 (DU-145 prostate) was 1.7 µM, the TGI (DU-145 prostate) was 4.49 µM and the GI50 (MCF7 breast) was 2.84 µM. It also gave a TGI (MCF7 breast) of over 100 µM, a GI50 (SR leukemia) of 2.4 µM and a TGI (SR leukemia) of over 100 µM. For the same compound, the GI50 (A549 NSCLC) was 1.88 µM, the TGI (A549 NSCLC) was 4.6 µM and the GI50 (EKVX NSCLC) was 2.05 µM. The TGI (EKVX NSCLC) was 5.35 µM, the GI50 (RPMI-8226 leukemia) was 2.11 µM and the TGI (RPMI-8226 leukemia) was 5.72 µM. The GI50 (PC-3 prostate) was 2.16 µM, the TGI (PC-3 prostate) was 7.41 µM and the GI50 (ACHN renal) was 1.87 µM. It also gave a TGI (ACHN renal) of 5.12 µM, a GI50 (COLO 205 colon) of 1.85 µM and a TGI (COLO 205 colon) of 4.17 µM. For the same compound, the GI50 (SF-268 CNS) was 3.32 µM, the TGI (SF-268 CNS) was over 100 µM and the GI50 (CAKI-1 renal) was 1.96 µM. For the same compound, the TGI (CAKI-1 renal) was 5.57 µM, the GI50 (SNB-75 CNS) was 6.91 µM and the TGI (SNB-75 CNS) was over 100 µM. The GI50 (HCC-2998 colon) was 1.7 µM, the TGI (HCC-2998 colon) was 3.47 µM and the GI50 (HS 578T breast) was 2.4 µM. It also gave a TGI (HS 578T breast) of 7.08 µM, a GI50 (SNB-19 CNS) of 2.9 µM and a TGI (SNB-19 CNS) of over 100 µM. For the same compound, the GI50 (NCI-H23 lung) was 2.01 µM, the TGI (NCI-H23 lung) was 4.96 µM and the GI50 (RXF 393 renal) was 1.71 µM. For the same compound, the TGI (RXF 393 renal) was 5.17 µM, the GI50 (A498 renal) was 2.22 µM and the TGI (A498 renal) was 9.24 µM. It also gave a GI50 (NCI-H460 lung) of 1.85 µM, a TGI (NCI-H460 lung) of 4.47 µM and a GI50 (SK-MEL-2 melanoma) of over 100 µM. For the same compound, the TGI (SK-MEL-2 melanoma) was over 100 µM, the GI50 (T-47D breast) was 4.03 µM and the TGI (T-47D breast) was over 100 µM. It also gave a GI50 (HL-60(TB) leukemia) of 2.6 µM, a TGI (HL-60(TB) leukemia) of over 100 µM and a GI50 (UO-31 renal) of 2.78 µM. It also gave a TGI (UO-31 renal) of over 100 µM, a GI50 (OVCAR-5 ovarian) of 3.07 µM and a TGI (OVCAR-5 ovarian) of over 100 µM. It also gave a GI50 (NCI-H522 lung) of 4.55 µM, a TGI (NCI-H522 lung) of over 100 µM and a GI50 (MOLT-4 leukemia) of 3.32 µM. The TGI (MOLT-4 leukemia) was over 100 µM, the GI50 (MDA-MB-231 breast) was 2.55 µM and the TGI (MDA-MB-231 breast) was over 100 µM. The GI50 (TK-10 renal) was 3.03 µM, the TGI (TK-10 renal) was over 100 µM and the GI50 (HOP-62 NSCLC) was 2.2 µM. For the same compound, the TGI (HOP-62 NSCLC) was 7.4 µM, the GI50 (KM12 colon) was 1.89 µM and the TGI (KM12 colon) was 5.35 µM. For the same compound, the GI50 (UACC-257 melanoma) was 2.59 µM, the TGI (UACC-257 melanoma) was 8.66 µM and the GI50 (K-562 leukemia) was 2.94 µM. The TGI (K-562 leukemia) was over 100 µM, the GI50 (OVCAR-3 ovarian) was 1.85 µM and the TGI (OVCAR-3 ovarian) was 4.33 µM. It also gave a GI50 (U251 CNS) of 2.19 µM, a TGI (U251 CNS) of over 100 µM and a GI50 (LOX IMVI melanoma) of 6.32 µM. It also gave a TGI (LOX IMVI melanoma) of over 100 µM, a GI50 (HOP-92 NSCLC) of 1.9 µM and a TGI (HOP-92 NSCLC) of 5.96 µM. The GI50 (786-0 renal) was over 100 µM, the TGI (786-0 renal) was over 100 µM and the GI50 (SF-539 CNS) was 3.07 µM. The TGI (SF-539 CNS) was over 100 µM, the GI50 (SF-295 CNS) was 2.13 µM and the TGI (SF-295 CNS) was 6.77 µM. It also gave a GI50 (NCI-H226 lung) of 5.36 µM and a TGI (NCI-H226 lung) of over 100 µM.
